Tests used:
Assay type in all cases: functional
NCI-H522 = assay: Cytotoxicity against human NCI-H522 cells assessed as cell growth at 0.01 uM incubated for 48 hrs by sulforhodamine B assay relative to control; details: NCI-H522, 48 h, read-out: Activity
HCC 2998 = assay: Cytotoxicity against human HCC2998 cells assessed as cell growth at 0.01 uM incubated for 48 hrs by sulforhodamine B assay relative to control; details: HCC 2998, 48 h, read-out: Activity
HT-29 [1] = assay: Cytotoxicity against human HT-29 cells assessed as cell growth at 0.01 uM incubated for 48 hrs by sulforhodamine B assay relative to control; details: HT-29, 48 h, read-out: Activity
SW-620 = assay: Cytotoxicity against human SW620 cells assessed as cell growth at 0.01 uM incubated for 48 hrs by sulforhodamine B assay relative to control; details: SW-620, 48 h, read-out: Activity
SF-539 [2] = assay: Cytotoxicity against human SF539 cells assessed as cell growth at 0.01 uM incubated for 48 hrs by sulforhodamine B assay relative to control; details: SF-539, 48 h, read-out: Activity
SNB-19 = assay: Cytotoxicity against human SNB19 cells assessed as cell growth at 0.01 uM incubated for 48 hrs by sulforhodamine B assay relative to control; details: SNB-19, 48 h, read-out: Activity
SNB-75 = assay: Cytotoxicity against human SNB75 cells assessed as cell growth at 0.01 uM incubated for 48 hrs by sulforhodamine B assay relative to control; details: SNB-75, 48 h, read-out: Activity
NCI/ADR-RES = assay: Cytotoxicity against human NCI/ADR-RES cells assessed as cell growth at 0.01 uM incubated for 48 hrs by sulforhodamine B assay relative to control; details: read-out: Activity
A498 [3] = assay: Cytotoxicity against human A498 cells assessed as cell growth at 0.01 uM incubated for 48 hrs by sulforhodamine B assay relative to control; details: A498, 48 h, read-out: Activity
NCI-H460 [4] = assay: Cytotoxicity against human NCI-H460 cells assessed as cell growth at 0.1 uM incubated for 48 hrs by sulforhodamine B assay relative to control; details: NCI-H460, 48 h, read-out: Activity
OVCAR-5 = assay: Cytotoxicity against human OVCAR5 cells assessed as cell growth at 0.1 uM incubated for 48 hrs by sulforhodamine B assay relative to control; details: OVCAR-5, 48 h, read-out: Activity
TK-10 = assay: Cytotoxicity against human TK10 cells assessed as cell growth at 0.1 uM incubated for 48 hrs by sulforhodamine B assay relative to control; details: TK-10, 48 h, read-out: Activity
DU-145 = assay: Cytotoxicity against human DU145 cells assessed as cell growth at 0.1 uM incubated for 48 hrs by sulforhodamine B assay relative to control; details: DU-145, 48 h, read-out: Activity
NCI-H23 = assay: Cytotoxicity against human NCI-H23 cells assessed as cell growth at 1 uM incubated for 48 hrs by sulforhodamine B assay relative to control; details: NCI-H23, 48 h, read-out: Activity
NCI-H460 [5] = assay: Cytotoxicity against human NCI-H460 cells assessed as cell growth at 1 uM incubated for 48 hrs by sulforhodamine B assay relative to control; details: NCI-H460, 48 h, read-out: Activity
IGROV-1 [6] = assay: Cytotoxicity against human IGROV1 cells assessed as cell growth at 1 uM incubated for 48 hrs by sulforhodamine B assay relative to control; details: IGROV-1, 48 h, read-out: Activity
OVCAR-8 = assay: Cytotoxicity against human OVCAR8 cells assessed as cell growth at 1 uM incubated for 48 hrs by sulforhodamine B assay relative to control; details: OVCAR-8, 48 h, read-out: Activity
786-0 = assay: Cytotoxicity against human 786-0 cells assessed as cell growth at 1 uM incubated for 48 hrs by sulforhodamine B assay relative to control; details: 786-0, 48 h, read-out: Activity
MOLT-4 = assay: Cytotoxicity against human MOLT4 cells assessed as cell growth at 10 uM incubated for 48 hrs by sulforhodamine B assay relative to control; details: MOLT-4, 48 h, read-out: Activity
EKVX = assay: Cytotoxicity against human EKVX cells assessed as cell growth at 10 uM incubated for 48 hrs by sulforhodamine B assay relative to control; details: read-out: Activity
SF-539 [7] = assay: Cytotoxicity against human SF539 cells assessed as cell growth at 10 uM incubated for 48 hrs by sulforhodamine B assay relative to control; details: SF-539, 48 h, read-out: Activity
LOX IMVI = assay: Cytotoxicity against human LOXIMVI cells assessed as cell growth at 10 uM incubated for 48 hrs by sulforhodamine B assay relative to control; details: read-out: Activity
OVCAR-3 [8] = assay: Cytotoxicity against human OVCAR3 cells assessed as cell growth at 10 uM incubated for 48 hrs by sulforhodamine B assay relative to control; details: OVCAR-3, 48 h, read-out: Activity
SK-OV-3 = assay: Cytotoxicity against human SKOV3 cells assessed as cell growth at 10 uM incubated for 48 hrs by sulforhodamine B assay relative to control; details: SK-OV-3, 48 h, read-out: Activity
A498 [9] = assay: Cytotoxicity against human A498 cells assessed as cell growth at 10 uM incubated for 48 hrs by sulforhodamine B assay relative to control; details: A498, 48 h, read-out: Activity
Malme-3M = assay: Cytotoxicity against human MALME-3M cells assessed as cell growth at 100 uM incubated for 48 hrs by sulforhodamine B assay relative to control; details: read-out: Activity
OVCAR-3 [10] = assay: Cytotoxicity against human OVCAR3 cells assessed as cell growth at 100 uM incubated for 48 hrs by sulforhodamine B assay relative to control; details: OVCAR-3, 48 h, read-out: Activity
MCF7 = assay: Cytotoxicity against human MCF7 cells assessed as cell growth at 100 uM incubated for 48 hrs by sulforhodamine B assay relative to control; details: MCF7, 48 h, read-out: Activity
HOP-92 = assay: Cytotoxicity against human HOP92 cells incubated for 48 hrs by sulforhodamine B assay; details: HOP-92, 48 h
HT-29 [11] = assay: Cytotoxicity against human HT-29 cells incubated for 48 hrs by sulforhodamine B assay; details: HT-29, 48 h
IGROV-1 [12] = assay: Cytotoxicity against human IGROV1 cells incubated for 48 hrs by sulforhodamine B assay; details: IGROV-1, 48 h
RXF 393 = assay: Cytotoxicity against human RXF393 cells incubated for 48 hrs by sulforhodamine B assay; details: RXF 393, 48 h
[13] = read-out: LC50 (the source's name)
[14] = read-out: pLC50 (the source's name) (converted)

COc1ccc(-c2nocc2-c2cc(OC)c(OC)c(OC)c2)cc1
growth at 0.01 µM (NCI-H522): 84% | growth at 0.01 µM (HCC 2998): 97% | growth at 0.01 µM (HT-29 [1]): 98% | growth at 0.01 µM (SW-620): 94% | growth at 0.01 µM (SF-539 [2]): 86% | growth at 0.01 µM (SNB-19): 98% | growth at 0.01 µM (SNB-75): 74% | growth at 0.01 µM (NCI/ADR-RES): 92% | growth at 0.01 µM (A498 [3]): 73% | growth at 0.1 µM (NCI-H460 [4]): 30% | growth at 0.1 µM (OVCAR-5): 86% | growth at 0.1 µM (TK-10): 46% | growth at 0.1 µM (DU-145): 71% | growth at 1 µM (NCI-H23): 29% | growth at 1 µM (NCI-H460 [5]): 11% | growth at 1 µM (IGROV-1 [6]): 47% | growth at 1 µM (OVCAR-8): 27% | growth at 1 µM (786-0): 37% | growth at 10 µM (MOLT-4): 26% | growth at 10 µM (EKVX): 32% | growth at 10 µM (SF-539 [7]): 2% | growth at 10 µM (LOX IMVI): 21% | growth at 10 µM (OVCAR-3 [8]): -9% | growth at 10 µM (SK-OV-3): 32% | growth at 10 µM (A498 [9]): -13% | growth at 100 µM (Malme-3M): -31% | growth at 100 µM (OVCAR-3 [10]): -21% | growth at 100 µM (MCF7): 1% | GI50 (HOP-92; read-out: GI50): 0.678 µM | LC50 (50% lethal concentration) (HOP-92; read-out: LC50): > 100 µM | TGI (HOP-92; read-out: TGI): 50.2 µM | GI50 (HOP-92; read-out: pGI50 (converted)): 0.676 µM | LC50 (50% lethal concentration) (HOP-92; read-out: pLC50 (converted)): > 100 µM | TGI (HOP-92; read-out: pTGI (converted)): 50.1 µM | GI50 (HT-29 [11]; read-out: GI50): 0.0365 µM | LC50 (HT-29 [11]; read-out: LC50): > 100 µM | TGI (HT-29 [11]; read-out: TGI): 12 µM | GI50 (HT-29 [11]; read-out: pGI50 (converted)): 0.0363 µM | LC50 (HT-29 [11]; read-out: pLC50 (converted)): > 100 µM | TGI (HT-29 [11]; read-out: pTGI (converted)): 12 µM | GI50 (IGROV-1 [12]; read-out: GI50): 0.346 µM | CC50 (IGROV-1 [12]; [13]): > 100 µM | TGI (IGROV-1 [12]; read-out: TGI): > 100 µM | GI50 (IGROV-1 [12]; read-out: pGI50 (converted)): 0.347 µM | CC50 (IGROV-1 [12]; [14]): > 100 µM | TGI (IGROV-1 [12]; read-out: pTGI): > 100 µM | GI50 (RXF 393; read-out: GI50): 0.243 µM | CC50 (RXF 393; [13]): > 100 µM | GI50 (RXF 393; read-out: pGI50 (converted)): 0.245 µM | CC50 (RXF 393; [14]): > 100 µM

Reference: ChEMBL document CHEMBL4145521, “Regioselective synthesis of 3,4-diaryl-5-unsubstituted isoxazoles, analogues of natural cytostatic combretastatin A4” (Eur J Med Chem, 2018)
